Measurements: patent US11345762B2, “Method for preparing liquid medium composition, and preparation device and kit therefor” (NISSAN CHEMICAL INDUSTRIES, LTD., priority 2015, dated 2022)

B1: human HB-EGF: growth factor, manufactured by PEPROTECH (protein, UniProt Q99075 63-148, looked up)
Heparin-binding EGF-like …: DLQEADLDLLRVTLSSKPQALATPNKEEHGKRKKKGKGLGKKRDPCLRKYKDFCIHGECKYVKELRAPSCICHPGYHGERCHGLSL
B2: human PDGF-BB: growth factor, manufactured by PEPROTECH (protein, UniProt P01127 82-190, looked up)
Platelet-derived growth …: SLGSLTIAEPAMIAECKTRTEVFEISRRLIDRTNANFLVWPPCVEVQRCSGCCNNRNVQCRPTQVQLRPVQVRKIEIVRKKPIFKKATVTLEDHLACKCETVAAARPVT
modifications: homodimer
notes: growth factor, manufactured by PEPROTECH

Test system: Human pancreatic cancer cell line Panc02,03
Test: Proliferation action on Panc02,03 cell stimulated by each growth factor (ATP, CellTiter-Glo)
Format: cell-based
Details: for efficacy in Panc02,03 cell proliferation test using the medium composition by the production method of the present invention (in words): compared to a monolayer culture method and negative control group
[1] = Panc02,03, 10 ng/mL, medium composition of Example 13, on day 6 (head)
[2] = Panc02,03, 10 ng/mL, monolayer culture group, culture conditions on day 6 (head)
[3] = Panc02,03, 10 ng/mL, negative control group (medium free of deacylated gellan gum, low adhesion plate), on day 6 (head)
[4] = Panc02,03, 100 ng/mL, medium composition of Example 13, on day 6 (head)
[5] = Panc02,03, 100 ng/mL, monolayer culture group, culture conditions on day 6 (head)
[6] = Panc02,03, 100 ng/mL, negative control group (medium free of deacylated gellan gum, low adhesion plate), on day 6 (head)
[7] = Panc02,03, 30 ng/mL, medium composition of Example 13, on day 6 (head)
[8] = Panc02,03, 30 ng/mL, monolayer culture group, culture conditions on day 6 (head)
[9] = Panc02,03, 30 ng/mL, negative control group (medium free of deacylated gellan gum, low adhesion plate), on day 6 (head)

Molecule | % control of RLU value (ATP measurement, luminescence intensity) [1] [% Control] | % control of RLU value (ATP measurement, luminescence intensity) [2] [% Control] | % control of RLU value (ATP measurement, luminescence intensity) [3] [% Control] | % control of RLU value (ATP measurement, luminescence intensity) [4] [% Control] | % control of RLU value (ATP measurement, luminescence intensity) [5] [% Control] | % control of RLU value (ATP measurement, luminescence intensity) [6] [% Control] | % control of RLU value (ATP measurement, luminescence intensity) (Panc02,03, 3 ng/mL, medium composition of Example 13, on day 6 (head)) [% Control] | % control of RLU value (ATP measurement, luminescence intensity) (Panc02,03, 3 ng/mL, monolayer culture group, culture conditions on day 6 (head)) [% Control] | % control of RLU value (ATP measurement, luminescence intensity) (Panc02,03, 3 ng/mL, negative control group (medium free of deacylated gellan gum, low adhesion plate), on day 6 (head)) [% Control] | % control of RLU value (ATP measurement, luminescence intensity) [7] [% Control] | % control of RLU value (ATP measurement, luminescence intensity) [8] [% Control] | % control of RLU value (ATP measurement, luminescence intensity) [9] [% Control] | efficacy in Panc02,03 cell proliferation test using the medium composition by the production method of the present invention (in words)
human FGF-2: growth factor, manufactured by PEPROTECH | 107 | 108 | 118 | 100 | 102 | 99 |  |  |  |  |  |  | 
human EGF: growth factor, manufactured by PEPROTECH |  |  |  |  |  |  | 108 | 105 | 117 | 187 | 97 | 136 | strongly shown
B1 |  |  |  | 202 | 98 | 134 |  |  |  | 118 | 99 | 132 | strongly shown
B2 | 101 | 98 | 128 |  |  |  |  |  |  |  |  |  | 
